Data from patent US9896435B2, “N-pyrrolidinyl,N′-pyrazolyl-urea, thiourea, guanidine and cyanoguanidine compounds as TrkA kinase inhibitors” (Array BioPharma Inc., priority 2012, dated 2018).

Tests used:
[1] = tested on: off-target kinases in the full kinase panel; test: KinaseProfiler full kinase panel, overall result; assay type: biochemical; details: for selectivity for inhibiting TrkA versus other kinases in the panel: 10 μM, panel of about 230 kinases; for activity against off-target kinases: concentration of 10 μM
Procedure: (§1) Two representative compounds (Example 2, 14) of the invention were tested for off-target kinase activity at a concentration of 10 μM by Millipore, Inc. in their KinaseProfiler™ service against all the kinases available in their full kinase panel. These compounds were run in duplicate at a concentration of ATP near the Km for each individual kinase according to Millipore's specifications. The results are shown in Table B. Data are reported as percent of control (POC) and are the average of the two replicates.
Such a drug profile would represent a safer approach to treating pain, inflammation, cancer and certain skin diseases than has been previously reported.

PhKgamma2 = PhKgamma2 (Homo sapiens (Human), UniProt P15735); test: KinaseProfiler off-target kinase profiling; assay type: biochemical; details: 10 μM, ATP near Km
Chain of PhKgamma2 (P15735 whole entry): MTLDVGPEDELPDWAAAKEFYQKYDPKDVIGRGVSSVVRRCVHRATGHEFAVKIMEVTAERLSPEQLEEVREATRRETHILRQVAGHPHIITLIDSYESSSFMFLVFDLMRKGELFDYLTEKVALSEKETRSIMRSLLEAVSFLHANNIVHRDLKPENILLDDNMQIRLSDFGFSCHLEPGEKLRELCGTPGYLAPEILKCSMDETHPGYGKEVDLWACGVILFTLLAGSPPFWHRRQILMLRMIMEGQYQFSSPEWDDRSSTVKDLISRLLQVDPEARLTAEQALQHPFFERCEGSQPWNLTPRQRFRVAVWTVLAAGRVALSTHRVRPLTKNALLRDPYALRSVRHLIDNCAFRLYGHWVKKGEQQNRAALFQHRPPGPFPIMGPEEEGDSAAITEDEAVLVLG
Procedure: as §1

ERK1 = ERK1 (Homo sapiens (Human), UniProt P27361); test: KinaseProfiler off-target kinase profiling; assay type: biochemical; details: 10 μM, ATP near Km
Chain of ERK1 (P27361 whole entry): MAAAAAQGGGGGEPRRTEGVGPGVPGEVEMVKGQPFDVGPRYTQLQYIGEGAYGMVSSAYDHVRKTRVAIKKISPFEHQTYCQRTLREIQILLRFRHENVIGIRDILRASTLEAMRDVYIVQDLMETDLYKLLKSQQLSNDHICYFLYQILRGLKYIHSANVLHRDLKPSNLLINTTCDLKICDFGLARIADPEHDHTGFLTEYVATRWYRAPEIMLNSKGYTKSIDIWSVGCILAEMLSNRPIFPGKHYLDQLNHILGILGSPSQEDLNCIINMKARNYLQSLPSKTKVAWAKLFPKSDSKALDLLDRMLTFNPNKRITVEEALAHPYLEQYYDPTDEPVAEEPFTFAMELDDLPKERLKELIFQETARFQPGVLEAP
Procedure: as §1

NLK = NLK (Homo sapiens (Human), UniProt Q9UBE8); test: KinaseProfiler off-target kinase profiling; assay type: biochemical; details: 10 μM, ATP near Km
Procedure: as §1

CAMK4 = CAMK4 (Homo sapiens (Human), UniProt Q16566); test: KinaseProfiler off-target kinase profiling; assay type: biochemical; details: 10 μM, ATP near Km
Procedure: as §1

Haspin = Haspin (Homo sapiens (Human), UniProt Q8TF76); test: KinaseProfiler off-target kinase profiling; assay type: biochemical; details: 10 μM, ATP near Km
Chain of Haspin (Q8TF76 whole entry): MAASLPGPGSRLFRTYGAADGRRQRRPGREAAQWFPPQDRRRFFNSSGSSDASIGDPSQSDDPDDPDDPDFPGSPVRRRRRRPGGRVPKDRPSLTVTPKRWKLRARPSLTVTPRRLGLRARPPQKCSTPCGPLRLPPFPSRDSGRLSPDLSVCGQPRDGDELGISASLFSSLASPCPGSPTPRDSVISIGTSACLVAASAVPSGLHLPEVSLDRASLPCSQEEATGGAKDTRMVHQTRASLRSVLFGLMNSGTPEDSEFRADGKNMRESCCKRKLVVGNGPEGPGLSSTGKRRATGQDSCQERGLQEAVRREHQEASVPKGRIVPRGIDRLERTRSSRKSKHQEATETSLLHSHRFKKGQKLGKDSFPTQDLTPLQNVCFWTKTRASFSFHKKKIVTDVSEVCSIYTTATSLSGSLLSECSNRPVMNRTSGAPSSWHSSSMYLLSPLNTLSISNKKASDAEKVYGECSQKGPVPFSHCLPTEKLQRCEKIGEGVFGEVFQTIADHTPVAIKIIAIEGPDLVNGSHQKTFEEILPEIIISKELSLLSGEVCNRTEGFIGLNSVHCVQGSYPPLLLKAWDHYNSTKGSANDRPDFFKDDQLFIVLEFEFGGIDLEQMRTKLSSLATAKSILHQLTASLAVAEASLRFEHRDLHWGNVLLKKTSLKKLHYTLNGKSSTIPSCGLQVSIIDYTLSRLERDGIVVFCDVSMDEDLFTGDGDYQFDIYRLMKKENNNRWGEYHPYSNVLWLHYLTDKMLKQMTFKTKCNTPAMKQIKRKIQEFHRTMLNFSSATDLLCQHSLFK
Procedure: as §1

PKCtheta = PKCtheta (Homo sapiens (Human), UniProt Q04759); test: KinaseProfiler off-target kinase profiling; assay type: biochemical; details: 10 μM, ATP near Km
Procedure: as §1

TAO1 = TAO1 (Homo sapiens (Human), UniProt Q7L7X3); test: KinaseProfiler off-target kinase profiling; assay type: biochemical; details: 10 μM, ATP near Km
Procedure: as §1

PKCbetaI = PKCbetaI (Homo sapiens (Human), UniProt P05771); test: KinaseProfiler off-target kinase profiling; assay type: biochemical; details: 10 μM, ATP near Km
Procedure: as §1

BrSK2 = BrSK2 (Homo sapiens (Human), UniProt Q8IWQ3); test: KinaseProfiler off-target kinase profiling; assay type: biochemical; details: 10 μM, ATP near Km
Chain of BrSK2 (Q8IWQ3 whole entry): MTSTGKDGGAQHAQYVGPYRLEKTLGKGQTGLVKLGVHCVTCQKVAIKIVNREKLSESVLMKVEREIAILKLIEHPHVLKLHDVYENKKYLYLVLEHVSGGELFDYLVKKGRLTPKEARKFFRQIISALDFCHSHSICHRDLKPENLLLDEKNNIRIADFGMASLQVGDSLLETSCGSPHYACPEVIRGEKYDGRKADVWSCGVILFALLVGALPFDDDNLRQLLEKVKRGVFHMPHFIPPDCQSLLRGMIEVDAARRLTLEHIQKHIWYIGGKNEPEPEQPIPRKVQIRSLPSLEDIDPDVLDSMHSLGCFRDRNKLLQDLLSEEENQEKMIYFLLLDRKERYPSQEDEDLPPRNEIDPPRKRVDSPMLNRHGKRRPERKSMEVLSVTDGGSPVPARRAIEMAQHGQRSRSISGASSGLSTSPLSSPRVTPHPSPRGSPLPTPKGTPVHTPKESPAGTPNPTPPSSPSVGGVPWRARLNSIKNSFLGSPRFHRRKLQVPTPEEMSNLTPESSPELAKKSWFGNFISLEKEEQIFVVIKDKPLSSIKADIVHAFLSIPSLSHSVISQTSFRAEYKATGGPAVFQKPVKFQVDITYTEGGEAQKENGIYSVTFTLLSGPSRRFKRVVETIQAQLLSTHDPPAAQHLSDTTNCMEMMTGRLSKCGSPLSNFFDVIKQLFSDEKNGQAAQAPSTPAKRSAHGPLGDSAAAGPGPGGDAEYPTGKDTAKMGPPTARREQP
Procedure: as §1

TAO3 = TAO3 (Homo sapiens (Human), UniProt Q9H2K8); test: KinaseProfiler off-target kinase profiling; assay type: biochemical; details: 10 μM, ATP near Km
Procedure: as §1

SRC = SRC (Homo sapiens (Human), UniProt P12931); test: KinaseProfiler off-target kinase profiling; assay type: biochemical; details: 10 μM, ATP near Km
Procedure: as §1

EphA1 = EphA1 (Homo sapiens (Human), UniProt P21709); test: KinaseProfiler off-target kinase profiling; assay type: biochemical; details: 10 μM, ATP near Km
Procedure: as §1

Rsk1 = Rsk1 (Homo sapiens (Human), UniProt Q15418); test: KinaseProfiler off-target kinase profiling; assay type: biochemical; details: 10 μM, ATP near Km
Procedure: as §1

CAMK1d = CAMK1d (Homo sapiens (Human), UniProt Q8IU85); test: KinaseProfiler off-target kinase profiling; assay type: biochemical; details: 10 μM, ATP near Km
Procedure: as §1

PRKG1beta = PRKG1beta (Homo sapiens (Human), UniProt Q13976); test: KinaseProfiler off-target kinase profiling; assay type: biochemical; details: 10 μM, ATP near Km
Chain of PRKG1beta (Q13976 other isoform, or with tags, fused parts or gaps): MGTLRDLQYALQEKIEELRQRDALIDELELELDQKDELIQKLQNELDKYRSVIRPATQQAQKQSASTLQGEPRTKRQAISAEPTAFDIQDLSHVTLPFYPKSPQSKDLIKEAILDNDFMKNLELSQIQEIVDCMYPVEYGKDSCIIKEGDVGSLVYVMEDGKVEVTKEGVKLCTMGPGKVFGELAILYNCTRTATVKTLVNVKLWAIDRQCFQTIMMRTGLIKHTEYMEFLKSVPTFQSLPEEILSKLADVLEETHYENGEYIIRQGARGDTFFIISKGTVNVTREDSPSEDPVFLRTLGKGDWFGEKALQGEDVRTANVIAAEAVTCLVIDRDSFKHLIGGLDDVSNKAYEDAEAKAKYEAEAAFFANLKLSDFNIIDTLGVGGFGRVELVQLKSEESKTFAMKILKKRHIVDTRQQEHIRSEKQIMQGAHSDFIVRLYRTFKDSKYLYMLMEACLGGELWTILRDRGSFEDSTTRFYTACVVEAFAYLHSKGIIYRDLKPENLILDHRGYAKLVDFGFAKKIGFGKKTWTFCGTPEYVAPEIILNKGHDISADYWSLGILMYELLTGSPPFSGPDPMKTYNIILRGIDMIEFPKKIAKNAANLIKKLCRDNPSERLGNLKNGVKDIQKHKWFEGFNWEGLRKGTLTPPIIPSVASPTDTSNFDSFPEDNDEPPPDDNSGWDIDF
Procedure: as §1

Fyn = Fyn (Homo sapiens (Human), UniProt P06241); test: KinaseProfiler off-target kinase profiling; assay type: biochemical; details: 10 μM, ATP near Km
Procedure: as §1

GRK6 = GRK6 (Homo sapiens (Human), UniProt P43250); test: KinaseProfiler off-target kinase profiling; assay type: biochemical; details: 10 μM, ATP near Km
Chain of GRK6 (P43250 whole entry): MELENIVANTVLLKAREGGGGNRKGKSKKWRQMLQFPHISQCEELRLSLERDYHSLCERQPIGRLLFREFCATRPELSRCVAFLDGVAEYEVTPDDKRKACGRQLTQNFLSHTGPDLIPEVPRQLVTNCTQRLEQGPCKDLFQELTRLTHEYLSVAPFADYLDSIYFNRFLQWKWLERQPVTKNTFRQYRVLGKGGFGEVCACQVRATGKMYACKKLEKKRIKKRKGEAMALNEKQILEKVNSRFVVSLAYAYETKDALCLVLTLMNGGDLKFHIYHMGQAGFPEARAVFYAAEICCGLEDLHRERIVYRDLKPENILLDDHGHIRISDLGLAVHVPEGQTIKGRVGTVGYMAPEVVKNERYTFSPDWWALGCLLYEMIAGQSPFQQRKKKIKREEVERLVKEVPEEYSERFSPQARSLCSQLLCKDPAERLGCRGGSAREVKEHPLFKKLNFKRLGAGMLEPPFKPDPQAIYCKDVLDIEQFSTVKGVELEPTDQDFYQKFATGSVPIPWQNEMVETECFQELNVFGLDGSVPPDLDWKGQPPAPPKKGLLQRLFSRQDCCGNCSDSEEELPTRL
Procedure: as §1

Fes = Fes (Homo sapiens (Human), UniProt P07332); test: KinaseProfiler off-target kinase profiling; assay type: biochemical; details: 10 μM, ATP near Km
Procedure: as §1

EphA4 = EphA4 (Homo sapiens (Human), UniProt P54764); test: KinaseProfiler off-target kinase profiling; assay type: biochemical; details: 10 μM, ATP near Km
Procedure: as §1

eEF-2K = eEF-2K (Homo sapiens (Human), UniProt O00418); test: KinaseProfiler off-target kinase profiling; assay type: biochemical; details: 10 μM, ATP near Km
Procedure: as §1

MEK1 = MEK1 (Homo sapiens (Human), UniProt Q02750); test: KinaseProfiler off-target kinase profiling; assay type: biochemical; details: 10 μM, ATP near Km
Procedure: as §1

MELK = MELK (Homo sapiens (Human), UniProt Q14680); test: KinaseProfiler off-target kinase profiling; assay type: biochemical; details: 10 μM, ATP near Km
Chain of MELK (Q14680 whole entry): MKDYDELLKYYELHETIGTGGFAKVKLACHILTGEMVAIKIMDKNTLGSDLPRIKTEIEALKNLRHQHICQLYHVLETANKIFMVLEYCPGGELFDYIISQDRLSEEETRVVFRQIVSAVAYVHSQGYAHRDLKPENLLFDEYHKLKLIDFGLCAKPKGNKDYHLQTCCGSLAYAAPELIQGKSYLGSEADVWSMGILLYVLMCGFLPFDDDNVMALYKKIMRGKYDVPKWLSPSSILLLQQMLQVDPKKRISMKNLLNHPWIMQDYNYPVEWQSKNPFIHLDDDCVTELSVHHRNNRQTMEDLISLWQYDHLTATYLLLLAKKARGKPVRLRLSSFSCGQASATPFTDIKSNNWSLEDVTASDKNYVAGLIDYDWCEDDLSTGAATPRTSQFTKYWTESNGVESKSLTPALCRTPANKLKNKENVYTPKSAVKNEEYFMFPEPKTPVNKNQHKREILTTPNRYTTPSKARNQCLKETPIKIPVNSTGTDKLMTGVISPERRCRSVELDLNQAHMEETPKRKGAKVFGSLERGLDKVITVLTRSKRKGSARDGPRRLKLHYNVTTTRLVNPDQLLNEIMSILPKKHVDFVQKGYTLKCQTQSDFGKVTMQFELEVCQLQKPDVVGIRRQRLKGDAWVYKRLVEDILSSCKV
Procedure: as §1

p38gamma = p38gamma (Homo sapiens (Human), UniProt P53778); test: KinaseProfiler off-target kinase profiling; assay type: biochemical; details: 10 μM, ATP near Km
Chain of p38gamma (P53778 whole entry): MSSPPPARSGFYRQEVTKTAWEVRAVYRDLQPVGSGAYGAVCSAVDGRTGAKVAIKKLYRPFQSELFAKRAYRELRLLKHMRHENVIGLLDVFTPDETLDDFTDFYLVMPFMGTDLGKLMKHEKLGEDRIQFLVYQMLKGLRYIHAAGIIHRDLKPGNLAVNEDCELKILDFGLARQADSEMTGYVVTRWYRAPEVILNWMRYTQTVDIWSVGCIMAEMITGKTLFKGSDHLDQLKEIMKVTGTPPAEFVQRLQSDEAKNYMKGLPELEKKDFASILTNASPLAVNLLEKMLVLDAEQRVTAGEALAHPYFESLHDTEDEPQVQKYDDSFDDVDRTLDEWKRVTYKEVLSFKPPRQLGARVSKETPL
Procedure: as §1

MSK1 = MSK1 (Homo sapiens (Human), UniProt O75582); test: KinaseProfiler off-target kinase profiling; assay type: biochemical; details: 10 μM, ATP near Km
Procedure: as §1

PKCgamma = PKCgamma (Homo sapiens (Human), UniProt P05129); test: KinaseProfiler off-target kinase profiling; assay type: biochemical; details: 10 μM, ATP near Km
Procedure: as §1

DYRK2 = DYRK2 (Homo sapiens (Human), UniProt Q92630); test: KinaseProfiler off-target kinase profiling; assay type: biochemical; details: 10 μM, ATP near Km
Procedure: as §1

Ret = Ret (Homo sapiens (Human), UniProt P07949); test: KinaseProfiler off-target kinase profiling; assay type: biochemical; details: 10 μM, ATP near Km
Procedure: as §1

SIK = SIK (Homo sapiens (Human), UniProt P57059); test: KinaseProfiler off-target kinase profiling; assay type: biochemical; details: 10 μM, ATP near Km
Procedure: as §1

EGFR = EGFR (Homo sapiens (Human), UniProt P00533); test: KinaseProfiler off-target kinase profiling; assay type: biochemical; details: 10 μM, ATP near Km
Procedure: as §1

MKK4_m = MKK4_m (Mus musculus (Mouse), UniProt P47809); test: KinaseProfiler off-target kinase profiling; assay type: biochemical; details: 10 μM, ATP near Km
Procedure: as §1

[2] = biological target: His-tagged recombinant human TrkA (Homo sapiens (Human), UniProt P04629); test: TrkA LanthaScreen Eu Kinase Binding Assay; details: averaged IC50; LanthaScreen binding assay of Example A; read-out: TrkA Enzyme IC50
Chain of His-tagged recombinant human TrkA (P04629 440-796): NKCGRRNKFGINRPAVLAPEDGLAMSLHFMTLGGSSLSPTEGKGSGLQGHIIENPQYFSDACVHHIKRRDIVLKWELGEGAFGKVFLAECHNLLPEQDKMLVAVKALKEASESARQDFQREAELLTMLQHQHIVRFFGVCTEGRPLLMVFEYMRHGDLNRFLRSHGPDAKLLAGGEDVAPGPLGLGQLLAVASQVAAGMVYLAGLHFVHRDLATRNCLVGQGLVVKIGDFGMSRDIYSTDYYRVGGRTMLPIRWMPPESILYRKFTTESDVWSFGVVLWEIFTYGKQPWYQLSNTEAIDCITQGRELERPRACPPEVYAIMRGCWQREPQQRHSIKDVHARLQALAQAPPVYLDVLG
Procedure: TrkA binding activity was determined in a TrkA LanthaScreen™ Eu Kinase Binding Assay. 5 nM His-tagged recombinant human TrkA (6HIS tagged cytoplasmic domain from Invitrogen, Catalog No. PV3144) was incubated with 4 nM Alexa-Fluor® Tracer 236 (Invitrogen Cat. No. PV5592), 2 nM biotinylated anti-His (Invitrogen Cat. No. PV6090), and 2 nM europium-labeled Streptavidin (Invitrogen Cat. No. PV5899), in buffer (25 mM MOPS, pH 7.5, 5 mM MgCl2, 0.005% Triton X-100). Three fold serial dilutions of compounds of the invention in DMSO were added to a final percentage of 2% DMSO. After 60-minute incubation at 22° C., the reaction was measured using the EnVision mutlimode plate reader (PerkinElmer) via TR-FRET dual wavelength detection at […]. The percent of control was calculated using a ratiometric emission factor. The IC50 values were determined by fitting a four parameter model to the percent of control data.
Table A provides averaged IC50 values for compounds of the invention when tested in the assay of Example A, where A represents an averaged IC50 value<100 nM.

SMILES | selectivity for inhibiting TrkA versus other kinases in the panel [1] | activity against off-target kinases [1] | Avg POC (PhKgamma2) [POC] | Avg POC (ERK1) [POC] | Avg POC (NLK) [POC] | Avg POC (CAMK4) [POC] | Avg POC (Haspin) [POC] | Avg POC (PKCtheta) [POC] | Avg POC (TAO1) [POC] | Avg POC (PKCbetaI) [POC] | Avg POC (BrSK2) [POC] | Avg POC (TAO3) [POC] | Avg POC (SRC) [POC] | Avg POC (EphA1) [POC] | Avg POC (Rsk1) [POC] | Avg POC (CAMK1d) [POC] | Avg POC (PRKG1beta) [POC] | Avg POC (Fyn) [POC] | Avg POC (GRK6) [POC] | Avg POC (Fes) [POC] | also measured
COCCN1C[C@@H](NC(=O)Nc2c(C)c(-c3ccnc(C)c3)nn2-c2ccccc2)[C@H](c2ccc(F)c(F)c2)C1 [Example 2, 1-((3S,4R)-4-(3,4-difluorophenyl)-1-(2-methoxyethyl)pyrrolidin-3-yl)-3-(4-methyl-3-(2-methylpyridin-4-yl)-1-phenyl-1H-pyrazol-5-yl)urea] | remarkable and unexpected selectivity | largely inactive | 90 | 103 | 111.5 | 97.5 | 71.5 | 98.5 | 102.5 | 95 | 93 | 97.5 | 105 | 97 | 111 | 100 | 97.5 | 97 | 96.5 | 135.5 | Avg POC (EphA4): 108.5 POC; Avg POC (eEF-2K): 98.5 POC; Avg POC (MEK1): 100.5 POC; Avg POC (MELK): 110 POC; Avg POC (p38gamma): 92 POC; Avg POC (MSK1): 102.5 POC; Avg POC (PKCgamma): 100.5 POC; Avg POC (DYRK2): 90.5 POC; Avg POC (Ret): 106.5 POC; Avg POC (SIK): 106.5 POC; Avg POC (EGFR): 105.5 POC; Avg POC (MKK4_m): 115 POC; IC50 [2]: < 100 nM
COCCN1C[C@@H](NC(=O)Nc2c(C)c(-c3cnc(C)nc3)nn2-c2ccccc2)[C@H](c2cc(F)cc(F)c2)C1 [Example 14, 1-((3S,4R)-4-(3,5-difluorophenyl)-1-(2-methoxyethyl)pyrrolidin-3-yl)-3-(4-methyl-3-(2-methylpyrimidin-5-yl)-1-phenyl-1H-pyrazol-5-yl)urea] | remarkable and unexpected selectivity | largely inactive | 88 | 78.5 | 108.5 | 83.5 | 96 | 98 | 96.5 | 101 | 99 | 100.5 | 103.5 | 99 | 111.5 | 103.5 | 101.5 | 91.5 | 97 | 125 | Avg POC (EphA4): 103.5 POC; Avg POC (eEF-2K): 103 POC; Avg POC (MEK1): 91 POC; Avg POC (MELK): 111.5 POC; Avg POC (p38gamma): 92.5 POC; Avg POC (MSK1): 106 POC; Avg POC (PKCgamma): 89.5 POC; Avg POC (DYRK2): 85 POC; Avg POC (Ret): 84 POC; Avg POC (SIK): 96 POC; Avg POC (EGFR): 96.5 POC; Avg POC (MKK4_m): 116.5 POC; IC50 [2]: < 100 nM
